Drawing on patent US20080287477A1, “Novel Compounds as Modulators of Ppar” (KALYPSYS, INC., priority 2006, published 2008), this text covers EC50 for 19 compounds.

Holding throughout (assay type): cell-based, murine and human
Details in all cases: 20-24 hours treatment

One experiment has as its target T1, PPAR-alpha (UniProt Q07869).
T1 sequence (Q07869 1-468): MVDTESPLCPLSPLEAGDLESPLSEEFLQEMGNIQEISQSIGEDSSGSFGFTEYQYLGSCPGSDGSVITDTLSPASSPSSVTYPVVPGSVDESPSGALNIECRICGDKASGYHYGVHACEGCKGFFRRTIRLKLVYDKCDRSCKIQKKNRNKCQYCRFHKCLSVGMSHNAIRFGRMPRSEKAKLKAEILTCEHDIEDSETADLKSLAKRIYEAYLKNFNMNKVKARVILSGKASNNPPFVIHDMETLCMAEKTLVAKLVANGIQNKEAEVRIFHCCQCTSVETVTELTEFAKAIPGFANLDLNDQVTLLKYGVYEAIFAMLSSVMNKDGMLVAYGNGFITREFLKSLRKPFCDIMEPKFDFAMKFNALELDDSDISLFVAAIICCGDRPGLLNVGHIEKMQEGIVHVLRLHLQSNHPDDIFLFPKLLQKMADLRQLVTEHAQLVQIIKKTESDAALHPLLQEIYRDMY
Briefly: Transient transfection transactivation assay in CV-1 cells, GAL4-PPAR-alpha chimera, luciferase reporter. The text has this:
(§1) Compounds may be screened for functional potency in transient transfection assays in CV-1 cells for their ability to activate the PPAR subtypes (transactivation assay). A previously established chimeric receptor system was utilized to allow comparison of the relative transcriptional activity of the receptor subtypes on the same synthetic response element and to prevent endogenous receptor activation from complicating the interpretation of results. See, for example, Lehmann, J. M.; Moore, L. B.; Smith-Oliver, T. A: Wilkinson, W. O.; Willson, T. M.; Kliewer, S. A., An antidiabetic thiazolidinedione is a high affinity ligand for peroxisome proliferator-activated receptor […], J. Biol. Chem., 1995, 270, 12953-6. The ligand binding domains for murine and human PPAR-alpha, PPAR-gamma, and PPAR-delta are each fused to the yeast transcription factor GAL4 DNA binding domain. CV-1 cells were transiently transfected with expression vectors for the respective PPAR chimera along with a reporter construct containing four or five copies of the GAL4 DNA binding site driving expression of luciferase. After 8-16 h, the cells are replated into multi-well assay plates and the media is exchanged to phenol-red free DME medium supplemented with 5% delipidated coif serum. 4 hours after replating, cells were treated with either compounds or 1% DMSO for 20-24 hours. Luciferase activity was then assayed with Britelite (Perkin Elmer) following the manufacturer's protocol and measured with either the Perkin Elmer Viewlux or Molecular Devices Acquost (see, for example. Kliewer, S. A., et. al. Cell 1995, 83, 813-819). Rosiglitazone is used as a positive control in the PPARγ assay. Wy-14643 and GW7647 is used as a positive control in the […]. GW50156 is used as the positive control in the PPARδ assay.
Examples 1-20 were assayed to measure their biological activity with respect to their efficacy for modulating PPAR-alpha, PPAR-gamma, and PPAR-delta. EC50 values are set forth below in Table 1.

The next experiment concerns the target T2, PPAR-delta (UniProt Q03181).
T2 sequence (Q03181 1-441): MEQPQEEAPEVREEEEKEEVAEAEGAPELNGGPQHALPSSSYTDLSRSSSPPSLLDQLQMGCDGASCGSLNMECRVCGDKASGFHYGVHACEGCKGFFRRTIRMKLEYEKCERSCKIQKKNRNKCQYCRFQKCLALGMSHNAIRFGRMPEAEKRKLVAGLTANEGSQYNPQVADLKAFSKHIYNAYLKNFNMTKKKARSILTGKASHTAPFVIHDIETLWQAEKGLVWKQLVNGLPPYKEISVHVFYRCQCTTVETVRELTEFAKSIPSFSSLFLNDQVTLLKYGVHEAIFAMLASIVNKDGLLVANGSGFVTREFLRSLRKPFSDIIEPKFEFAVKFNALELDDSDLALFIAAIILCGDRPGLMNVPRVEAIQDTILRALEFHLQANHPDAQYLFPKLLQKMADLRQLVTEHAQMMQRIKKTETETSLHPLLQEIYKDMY
The experiment can be described thus: Transient transfection transactivation assay in CV-1 cells, GAL4-PPAR-delta chimera, luciferase reporter.
Excerpt: as §1
(§2) EC50 values are set forth below in Table 1.

The target in a further experiment is T3, PPAR-gamma (UniProt P37231).
T3 sequence (P37231 1-505): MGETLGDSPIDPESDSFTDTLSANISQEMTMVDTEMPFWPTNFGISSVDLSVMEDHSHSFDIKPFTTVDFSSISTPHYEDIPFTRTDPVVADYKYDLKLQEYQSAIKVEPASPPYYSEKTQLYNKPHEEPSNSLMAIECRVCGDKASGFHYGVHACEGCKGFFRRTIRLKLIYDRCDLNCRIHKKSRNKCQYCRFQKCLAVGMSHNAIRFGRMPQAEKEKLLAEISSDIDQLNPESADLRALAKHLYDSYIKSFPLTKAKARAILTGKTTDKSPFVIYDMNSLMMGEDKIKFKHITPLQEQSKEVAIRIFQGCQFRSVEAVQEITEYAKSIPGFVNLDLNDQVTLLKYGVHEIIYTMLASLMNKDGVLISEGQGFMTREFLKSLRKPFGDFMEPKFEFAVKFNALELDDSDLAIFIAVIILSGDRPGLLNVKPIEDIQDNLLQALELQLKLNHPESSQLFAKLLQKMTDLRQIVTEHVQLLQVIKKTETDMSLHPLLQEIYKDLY
The experiment can be described thus: Transient transfection transactivation assay in CV-1 cells, GAL4-PPAR-gamma chimera, luciferase reporter.
Excerpt: as §1, §2

Consider `CCc1cnc(N(CCNS(=O)(=O)c2cccc3c2CC(C(=O)O)C3)Cc2ccc(OC(F)(F)F)cc2)nc1` (stereo not drawn) [Example 1, 4-{2-[(5-Ethyl-pyrimidin-2-yl)-(4-trifluoromethoxy-benzyl}-amino]-ethylsulfamoyl)-indan-2-carboxylic acid], for which the EC50 at PPAR-alpha, on PPAR-delta and on PPAR-gamma was < 5 µM each time.
Consider `CCc1cnc(N(CCNS(=O)(=O)c2cc(C)cc(CC(=O)O)c2)Cc2ccc(OC(F)(F)F)cc2)nc1` [Example 2, (3-{2-[(Ethyl-pyrimidin-2-yl)-(4-trifluoromethoxy-benzyl)-amino]-ethylsulfamoyl)-5-methyl-phenyl)-acetic acid], for which the EC50 at PPAR-alpha, at PPAR-delta and on PPAR-gamma was < 5 µM each time.
As to `CCCCCN(CCNS(=O)(=O)c1cccc2c1CC(C(=O)O)C2)Cc1ccc(OC(F)(F)F)cc1` (stereo not drawn) [Example 3, 4-{2-[Pentyl-(4-trifluoromethoxy-benzyl)-amino]-ethylsulfamoyl}-indan-2-carboxylic acid], the EC50 at PPAR-alpha, on PPAR-delta and on PPAR-gamma was < 5 µM each time.
On to `CCCCCN(CCNS(=O)(=O)c1cc(C)cc(CC(=O)O)c1)Cc1ccc(OC(F)(F)F)cc1` [Example 4], for which the half-maximal effective concentration (EC50) on PPAR-alpha, on PPAR-delta and on PPAR-gamma was < 5 µM in each case.
As for `CCN(CCNS(=O)(=O)c1cc(C)cc(CC(=O)O)c1)Cc1ccc(OC(F)(F)F)cc1` [Example 5, (3-{2-[Ethyl-(4-trifluoromethoxy-benzyl}-amino]-ethylsulfamoyl)-5-methyl-phenyl)-acetic acid], the EC50 (commonly the midpoint of the concentration-response curve) is 5 to 100 µM on PPAR-alpha, < 5 µM on PPAR-delta and < 5 µM on PPAR-gamma.
`CCCCN(CCNS(=O)(=O)c1cc(C)cc(CC(=O)O)c1)Cc1ccc(OC(F)(F)F)cc1` [Example 6, (3-{2-[Butyl-(4-trifluoromethoxy-benzyl)-amino]-ethylsulfamoyl}-5-methyl-phenyl)-acetic acid]: the EC50 at PPAR-alpha, at PPAR-delta and at PPAR-gamma was < 5 µM each time.
Take `CCCCN(CCNS(=O)(=O)c1cccc2c1CC(C(=O)O)C2)Cc1ccc(OC(F)(F)F)cc1` (stereo not drawn) [Example 7, 4-{2-[Butyl-(4-trifluoromethoxy-benzyl)-amino]-ethylsulfamoyl}-indan-2-carboxylic acid]: the EC50 on PPAR-alpha, on PPAR-delta and at PPAR-gamma was < 5 µM in each case.
For `CCN(CCNS(=O)(=O)c1cccc2c1CC(C(=O)O)C2)Cc1ccc(OC(F)(F)F)cc1` (stereo not drawn) [Example 8], the EC50 on PPAR-alpha, at PPAR-delta and on PPAR-gamma was < 5 µM in each case.
As for `CCCc1c(OCCN(C)S(=O)(=O)c2cccc3c2CC(C(=O)O)C3)ccc(C(C)=O)c1O` (stereo not drawn) [Example 9, 4-(N-(2-(4-Acetyl-3-hydroxy-2-propylphenoxy)ethyl)-N-methylsulfamoyl)-2,3-dihydro-1H-indene-2-carboxylic acid], the EC50 on PPAR-alpha is > 100 µM; on PPAR-delta, < 5 µM; on PPAR-gamma it was < 5 µM.
Consider `CCCc1c(OCCN(C)S(=O)(=O)c2ccc3c(c2)C(C(=O)O)CC3)ccc(C(C)=O)c1O` (stereo not drawn) [Example 10, 6-(N-(2-(4-Acetyl-3-hydroxy-2-propylphenoxy)ethyl)-N-methylsulfamoyl)-2-dihydro-1H-indene-1-carboxylic acid], for which the EC50 on PPAR-alpha, on PPAR-delta and at PPAR-gamma was < 5 µM in each case.
Turning to `CCCc1c(OCCNS(=O)(=O)c2cccc3c2CC(C(=O)O)C3)ccc(C(C)=O)c1O` (stereo not drawn) [Example 11, 4-(N-(2-(4-Acetyl-3-hydroxy-2-propylphenoxy)ethyl)sulfamoyl)-2,3-dihydro-1H-indene-2-carboxylic acid], the EC50 at PPAR-alpha is > 100 µM; on PPAR-delta, < 5 µM; at PPAR-gamma, < 5 µM.
Take `CCCc1c(OCCNS(=O)(=O)c2ccc3c(c2)CC(C(=O)O)C3)ccc(C(C)=O)c1O` (stereo not drawn) [Example 12, 5-(N-(2-(4-Acetyl-3-hydroxy-2-propylphenoxy)ethyl)sulfamoyl)-2,3-dihydro-1H-indene-2-carboxylic acid]: the EC50 at PPAR-alpha, on PPAR-delta and on PPAR-gamma was 5 to 100 µM each time.
With `CCCc1c(OCCN(C)S(=O)(=O)c2ccc3c(c2)CC(C(=O)O)C3)ccc(C(C)=O)c1O` (stereo not drawn) [Example 13], the EC50 was > 100 µM at PPAR-alpha, > 100 µM at PPAR-delta and 5 to 100 µM on PPAR-gamma.
On to `CCCc1c(OCCN(C)S(=O)(=O)c2cccc3c2CC(C(=O)O)C3)ccc2c(C(F)(F)F)noc12` (stereo not drawn) [Example 14, 4-(N-methyl-N-(2-(7-propyl-3-(trifluoromethyl)benzo[d]isoxazol-6-yloxy)ethyl)sulfamoyl)-2,3-dihydro-1H-indene-2-carboxylic acid], for which the EC50 at PPAR-alpha, at PPAR-delta and on PPAR-gamma was < 5 µM in each case.
As to `Cc1ccc(C(=NOCCN(C)S(=O)(=O)c2cccc3c2CC(C(=O)O)C3)c2ccc(C)cc2)cc1` (stereo not drawn) [Example 15, 4-(N-(2-(di-p-tolylmethyleneaminooxy)ethyl)-N-methylsulfamoyl)-2,3-dihydro-1H-indene-2-carboxylic acid], the EC50 at PPAR-alpha was > 100 µM; on PPAR-delta, < 5 µM; on PPAR-gamma, > 100 µM.
In the case of `Cc1ccc(S(=O)(=O)N(C)CCON=C(c2ccc(C(F)(F)F)cc2)c2ccc(C(F)(F)F)cc2)cc1CC(=O)O` [Example 16], the EC50 on PPAR-alpha, at PPAR-delta and on PPAR-gamma was < 5 µM throughout.
Turning to `CN(CCON=C(c1ccc(C(F)(F)F)cc1)c1ccc(C(F)(F)F)cc1)S(=O)(=O)c1cccc2c1CC(C(=O)O)C2` (stereo not drawn) [Example 18, 4-(N-(2-(bis(4-(trifluoromethyl)phenyl)methyleneaminooxy)ethyl)-N-methylsulfamoyl)-2,3-dihydro-1H-indene-2-carboxylic acid], the EC50 was > 100 µM on PPAR-alpha, < 5 µM on PPAR-delta and < 5 µM on PPAR-gamma.
`CN(CCON=C(c1ccc(OC(F)(F)F)cc1)c1ccc(OC(F)(F)F)cc1)S(=O)(=O)c1cccc2c1CC(C(=O)O)C2` (stereo not drawn) [Example 19, 4-(N-(2-(bis(4-(trifluoromethoxy)phenyl)methyleneaminooxy)ethyl)-N-methylsulfamoyl)-2,3-dihydro-1H-indene-2-carboxylic acid]: the results for the EC50 on PPAR-alpha, at PPAR-delta and on PPAR-gamma were > 100 µM, < 5 µM and < 5 µM, respectively.
On to `Cc1ccc(C(=NOCCN(C)S(=O)(=O)c2ccc(C)c(CC(=O)O)c2)c2ccc(C)cc2)cc1` [Example 20], for which the EC50 at PPAR-alpha, on PPAR-delta and at PPAR-gamma was < 5 µM throughout.
